Here are results for twelve compounds from ChEMBL document CHEMBL4376858, “Structure-Activity Relationships of Novel Thiazole-Based Modafinil Analogues Acting at Monoamine Transporters” (J Med Chem, 2020).

Assay [1] addresses Sodium-dependent dopamine transporter (Homo sapiens, UniProt Q01959). Put plainly: Inhibition of wild type human dopamine transporter expressed in HEK293 cells assessed as inhibition of [3H]dopamine reuptake preincubated for 5 mins followed by [3H]dopamine addition and measured after 1 min by liquid scintillation analysis. The class given is cell-based.
In assay [2] the target is T1, Sodium-dependent noradrenaline transporter (Homo sapiens, UniProt P23975). Put plainly: Inhibition of wild type human NET expressed in HEK293 cells assessed as inhibition of [3H]-MPP+ reuptake preincubated for 5 mins followed by [3H]MPP+ addition and measured after 3 mins by liquid scintillation counting analysis. The class given is cell-based.
T1 sequence (P23975 whole entry): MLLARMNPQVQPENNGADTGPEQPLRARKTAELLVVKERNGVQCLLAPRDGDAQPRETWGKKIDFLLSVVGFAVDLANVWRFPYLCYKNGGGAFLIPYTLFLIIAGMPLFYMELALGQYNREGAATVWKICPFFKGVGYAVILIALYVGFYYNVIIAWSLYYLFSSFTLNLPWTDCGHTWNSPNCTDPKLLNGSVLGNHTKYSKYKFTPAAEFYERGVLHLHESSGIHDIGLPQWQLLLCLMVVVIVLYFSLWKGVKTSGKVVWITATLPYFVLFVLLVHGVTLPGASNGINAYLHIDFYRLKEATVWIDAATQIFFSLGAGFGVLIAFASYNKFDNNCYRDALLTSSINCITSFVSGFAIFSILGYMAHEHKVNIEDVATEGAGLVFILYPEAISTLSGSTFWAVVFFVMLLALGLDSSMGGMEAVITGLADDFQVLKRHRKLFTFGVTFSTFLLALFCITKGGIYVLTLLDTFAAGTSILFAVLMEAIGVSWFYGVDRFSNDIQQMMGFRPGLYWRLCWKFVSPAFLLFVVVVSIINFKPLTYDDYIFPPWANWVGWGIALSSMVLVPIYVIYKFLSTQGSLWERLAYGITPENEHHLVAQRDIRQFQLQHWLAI
In assay [3] the target is Sodium-dependent serotonin transporter (Homo sapiens, UniProt P31645). The class given is cell-based, HEK293.
Chain of Sodium-dependent serotonin transporter (P31645 whole entry): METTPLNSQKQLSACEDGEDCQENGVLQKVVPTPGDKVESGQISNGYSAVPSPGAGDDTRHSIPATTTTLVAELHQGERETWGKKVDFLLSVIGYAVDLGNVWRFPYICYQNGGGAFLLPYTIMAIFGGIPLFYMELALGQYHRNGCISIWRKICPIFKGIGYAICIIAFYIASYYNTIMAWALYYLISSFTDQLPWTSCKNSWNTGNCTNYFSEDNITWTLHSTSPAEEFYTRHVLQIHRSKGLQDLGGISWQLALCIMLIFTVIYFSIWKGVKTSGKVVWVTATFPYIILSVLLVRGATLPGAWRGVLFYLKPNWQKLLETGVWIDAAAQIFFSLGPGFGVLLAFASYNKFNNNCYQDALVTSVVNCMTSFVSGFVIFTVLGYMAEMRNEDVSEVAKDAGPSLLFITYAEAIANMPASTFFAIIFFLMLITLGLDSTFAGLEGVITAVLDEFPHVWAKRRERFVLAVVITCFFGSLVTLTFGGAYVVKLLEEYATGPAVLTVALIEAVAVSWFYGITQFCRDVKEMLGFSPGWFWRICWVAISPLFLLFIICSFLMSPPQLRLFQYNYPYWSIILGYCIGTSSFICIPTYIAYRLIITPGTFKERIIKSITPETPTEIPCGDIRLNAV
Description: Inhibition of wild type human SERT expressed in HEK293 cells assessed as inhibition of [3H]-5HT reuptake preincubated for 5 mins followed by [3H]5HT addition and measured after 1 min by liquid scintillation counting analysis
The target of assay [4] is T1, Sodium-dependent noradrenaline transporter. Put plainly: Inhibition of wild type human NET expressed in HEK293 cells assessed as inhibition of [3H]-MPP+ reuptake preincubated for 8 mins followed by [3H]MPP+ addition and measured after 3 mins by liquid scintillation counting analysis. The class given is cell-based.

Chain of Sodium-dependent dopamine transporter (Q01959 whole entry): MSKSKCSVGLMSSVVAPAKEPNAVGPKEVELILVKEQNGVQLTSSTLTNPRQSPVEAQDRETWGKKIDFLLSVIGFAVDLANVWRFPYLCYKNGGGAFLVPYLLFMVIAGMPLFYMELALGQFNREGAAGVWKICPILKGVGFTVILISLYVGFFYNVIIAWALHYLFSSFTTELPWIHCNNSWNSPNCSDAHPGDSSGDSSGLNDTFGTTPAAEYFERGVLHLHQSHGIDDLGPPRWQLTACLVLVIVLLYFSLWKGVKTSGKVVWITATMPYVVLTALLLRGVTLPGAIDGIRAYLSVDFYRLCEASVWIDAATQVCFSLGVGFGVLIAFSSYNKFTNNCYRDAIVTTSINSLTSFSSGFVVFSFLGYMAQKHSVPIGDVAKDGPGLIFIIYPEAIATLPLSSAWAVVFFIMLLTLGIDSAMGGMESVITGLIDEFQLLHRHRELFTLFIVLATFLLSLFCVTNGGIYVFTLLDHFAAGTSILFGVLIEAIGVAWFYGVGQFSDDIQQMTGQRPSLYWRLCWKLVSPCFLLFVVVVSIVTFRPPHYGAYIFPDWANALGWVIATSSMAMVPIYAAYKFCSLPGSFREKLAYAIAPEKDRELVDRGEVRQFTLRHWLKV

Consider `[O-][S@+](Cc1cncs1)[C@H](c1ccccc1)c1ccc(Br)cc1`, for which the IC50 in assay [1] (read-out: IC50) was found to be 4.7 µM; in assay [2] (read-out: IC50), 22.7 µM; in assay [3] (read-out: IC50) it was 29.7 µM.

`Cc1ncc(C[S+]([O-])C(c2ccccc2)c2ccccc2)s1` (stereo unspecified): the values for the IC50 in assay [1] (read-out: IC50), in assay [2] (hek293) and in assay [3] (hek293) were 68.1 µM, “Not Active” and “Not Active”, respectively.

Consider `[O-][S+](Cc1nccs1)C(c1ccccc1)c1ccccc1` (stereo unspecified), for which the values for the IC50 in assay [1] (read-out: IC50), in assay [4] and in assay [3] (hek293) were 14.7 µM, 420 µM and “Not Active”, respectively.

With `[O-][S+](Cc1cscn1)C(c1ccc(Cl)cc1)c1ccc(Cl)cc1` (stereo unspecified), the values for the IC50 in assay [1] (read-out: IC50), in assay [2] (read-out: IC50) and in assay [3] (hek293) were 5.04 µM, 107 µM and “Not Active”, respectively.

Regarding `CC(C)c1nc(C[S+]([O-])C(c2ccccc2)c2ccccc2)cs1` (stereo unspecified), the half-inhibitory concentration (IC50) in assay [1] (read-out: IC50) was 24.3 µM; in assay [2] (hek293), “Not Active”; in assay [3] (hek293), “Not Active”.

As for `COc1ccc(C(c2ccc(OC)cc2)[S+]([O-])Cc2cncs2)cc1` (stereo unspecified), the IC50 in assay [1] (read-out: IC50) is 71.6 µM; in assay [2] (hek293) it was “Not Active”; in assay [3] (hek293), “Not Active”.

With `COc1ccc([C@H](c2ccccc2)[S@+]([O-])Cc2cncs2)cc1`, the half-inhibitory concentration (IC50) in assay [1] (read-out: IC50) was 65.1 µM; in assay [2] (hek293) it was “Not Active”; in assay [3] (hek293) it was “Not Active”.

`[O-][S@+](Cc1cncs1)[C@H](c1ccccc1)c1ccc(Cl)cc1`: the IC50 in assay [1] (read-out: IC50) stood at 7.4 µM; in assay [2] (read-out: IC50), 36.5 µM; in assay [3] (read-out: IC50), 140 µM.

As for `[O-][S@+](Cc1cncs1)[C@H](c1ccccc1)c1ccc(C(F)(F)F)cc1`, the IC50 result in assay [1] (hek293), in assay [2] (hek293) and in assay [3] (hek293) was “Not Active” each time.

Consider `[O-][S@@+](Cc1cncs1)[C@@H](c1ccccc1)c1ccc(F)cc1`, for which the IC50 was 2 µM in assay [1] (read-out: IC50), 129 µM in assay [2] (read-out: IC50) and “Not Active” in assay [3] (hek293).

On to `[O-][S@@+](Cc1cncs1)[C@H](c1ccccc1)c1ccc(C(F)(F)F)cc1`, for which the concentration for half-maximal inhibition (IC50) in assay [1] (read-out: IC50) was 37.7 µM; in assay [2] (hek293) it was “Not Active”; in assay [3] (hek293) it was “Not Active”.

Take `Cc1ccc([C@@H](c2ccccc2)[S@+]([O-])Cc2cncs2)cc1`: the 50% inhibitory concentration (IC50) in assay [1] (read-out: IC50) came out at 19.6 µM; in assay [2] (read-out: IC50), 68.2 µM; in assay [3] (read-out: IC50), 201 µM.
